Assay results published in patent publication US10112940B2, “Histone demethylase inhibitors” (Celgene Quanticel Research, Inc., priority 2014, dated 2018).
Read-outs that look alike come from different tables or passages of the source.

Assays:
[1] = test system: KYSE-150 esophageal carcinoma cell line; test: In vitro cell-based assay: BrdU incorporation cell proliferation ELISA; design: species or system human; details: KYSE-150 cells, 168 hours compound incubation, read-out: Cellular IC50
In short: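 KYSE-150 cells (SMAD4 mut, TP53 mut) seeded at 2,000 cells/well, treated next day with 11-point dilutions (100 μM to 2 nM final) for 168 h. Proliferation read by 2 h BrdU labelling and colorimetric anti-BrdU ELISA at 450 nm; IC50 from curve fit.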

JMJD2C = JMJD2C (Homo sapiens (Human), UniProt Q9H3R0); test: JMJD2C in vitro enzyme inhibition assay (TR-FRET); format: biochemical; details: 0.3 nM JMJD2C, 300 nM H3K9me3-biotin peptide, 2 μM alpha-ketoglutaric acid, 30 minutes
JMJD2C, sequence (Q9H3R0 2-372): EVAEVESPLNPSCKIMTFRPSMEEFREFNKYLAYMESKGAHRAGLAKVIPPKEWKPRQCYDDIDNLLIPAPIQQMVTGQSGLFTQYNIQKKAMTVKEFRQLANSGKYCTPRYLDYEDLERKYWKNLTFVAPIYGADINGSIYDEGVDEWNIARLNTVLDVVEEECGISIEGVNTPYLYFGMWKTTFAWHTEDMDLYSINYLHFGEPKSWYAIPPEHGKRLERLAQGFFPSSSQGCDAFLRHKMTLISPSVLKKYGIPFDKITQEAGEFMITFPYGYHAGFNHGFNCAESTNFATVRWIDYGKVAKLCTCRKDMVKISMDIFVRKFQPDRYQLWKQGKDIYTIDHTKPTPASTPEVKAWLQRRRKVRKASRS
In short: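 Baculovirus-expressed JMJD2C (aa 2-372), 0.3 nM, with 300 nM biotin-H3K9me3 peptide and 2 μM alpha-ketoglutarate in HEPES pH 7.3 with ascorbate and Fe(II), 30 min at room temperature, 11-point inhibitor series. H3K9me2 product detected by TR-FRET (Eu-antibody/streptavidin-APC, 665/615 ratio); IC50 fitted.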

IC50 ([1]; Homo sapiens) [nM] | IC50 (JMJD2C) [nM] | Compound | IC50 [1] [nM]
≤ 100 | 1000 to 10000 | CN(c1ccc(OCC(C)(C)C)cc1)c1ccc(Oc2nc(O)c3ccncc3n2)cc1 [Example 75, 2-[4-[4-(2,2-dimethylpropoxy)-N-methylanilino]phenoxy]pyrido[3,4-d]pyrimidin-4-ol] | –
≤ 100 | 1000 to 10000 | CN(c1ccc(CC2CC2)cc1)c1ccc(Oc2nc(O)c3ccncc3n2)cc1 [Example 76, 2-[4-[4-(cyclopropylmethyl)-N-methylanilino]phenoxy]pyrido[3,4-d]pyrimidin-4-ol] | –
≤ 100 | 1000 to 10000 | CC[C@H](C)c1ccc(N(C)c2ccc(Oc3nc(O)c4ccncc4n3)cc2)cc1 [Example 77, 2-[4-[4-[(2S)-butan-2-yl]-N-methylanilino]phenoxy]pyrido[3,4-d]pyrimidin-4-ol] | –
≤ 100 | 1000 to 10000 | CC[C@@H](C)c1ccc(N(C)c2ccc(Oc3nc(O)c4ccncc4n3)cc2)cc1 [Example 78, 2-[4-[4-[(2R)-butan-2-yl]-N-methylanilino]phenoxy]pyrido[3,4-d]pyrimidin-4-ol] | –
≤ 100 | ≤ 100 | CN1CCN(c2cccc(N(C)c3ccc(Oc4nc(O)c5ccncc5n4)cc3)c2)CC1 [Example 79, 2-[4-[N-methyl-3-(4-methylpiperazin-1-yl)anilino]phenoxy]pyrido[3,4-d]pyrimidin-4-ol] | –
100 to 1000 | 100 to 1000 | CCN(c1ccccc1)c1ccc(Oc2nc(O)c3ccncc3n2)cc1 [Example 80, 2-[4-(N-ethylanilino)phenoxy]pyrido[3,4-d]pyrimidin-4-ol] | –
> 10000 | 100 to 1000 | CN(c1ccc(C#N)cc1)c1ccc(Oc2nc(O)c3ccncc3n2)cc1 [Example 81, 4-[4-(4-hydroxypyrido[3,4-d]pyrimidin-2-yl)oxy-N-methylanilino]benzonitrile] | –
> 10000 | 100 to 1000 | CN(c1ccc(Oc2nc(O)c3ccncc3n2)cc1)c1ccc2nn(C)cc2c1 [Example 82, 2-[4-[methyl-(2-methylindazol-5-yl)amino]phenoxy]pyrido[3,4-d]pyrimidin-4-ol] | –
100 to 1000 | 1000 to 10000 | Cc1ccc(N(C)c2ccc(Oc3nc(O)c4ccncc4n3)cc2)cc1C [Example 83, 2-[4-(N,3,4-trimethylanilino)phenoxy]pyrido[3,4-d]pyrimidin-4-ol] | –
≤ 100 | 100 to 1000 | CCc1ccc(N(C)c2ccc(Oc3nc(O)c4ccncc4n3)cc2)cc1 [Example 84, 2-[4-(4-ethyl-N-methylanilino)phenoxy]pyrido[3,4-d]pyrimidin-4-ol] | –
≤ 100 | 1000 to 10000 | CC(C)c1ccc(N(C)c2ccc(Oc3nc(O)c4ccncc4n3)cc2)cc1 [Example 85, 2-[4-(N-methyl-4-propan-2-ylanilino)phenoxy]pyrido[3,4-d]pyrimidin-4-ol] | –
100 to 1000 | 1000 to 10000 | CN(c1ccc(Oc2nc(O)c3ccncc3n2)cc1)c1cccc(C(F)(F)F)c1 [Example 86, 2-[4-[N-methyl-3-(trifluoromethyl)anilino]phenoxy]pyrido[3,4-d]pyrimidin-4-ol] | –
100 to 1000 | 1000 to 10000 | CN(c1ccc(Oc2nc(O)c3ccncc3n2)cc1)c1ccc(C(F)(F)F)cc1 [Example 87, 2-[4-[N-methyl-4-(trifluoromethyl)anilino]phenoxy]pyrido[3,4-d]pyrimidin-4-ol] | –
> 10000 | ≤ 100 | CN1CCCN(c2cccc(N(C)c3ccc(Oc4nc(O)c5ccncc5n4)cc3)c2)CC1 [Example 88, 2-[4-[N-methyl-3-(4-methyl-1,4-diazepan-1-yl)anilino]phenoxy]pyrido[3,4-d]pyrimidin-4-ol] | –
> 10000 | ≤ 100 | Cc1cc(N2CCN(C)CC2)cc(N(C)c2ccc(Oc3nc(O)c4ccncc4n3)cc2)c1 [Example 90, 2-[4-[N,3-dimethyl-5-(4-methylpiperazin-1-yl)anilino]phenoxy]pyrido[3,4-d]pyrimidin-4-ol] | –
> 10000 | 100 to 1000 | Oc1nc(Oc2ccc3c(ccn3C3CCOCC3)c2)nc2cnccc12 [Example 91, 2-[1-(oxan-4-yl)indol-5-yl]oxypyrido[3,4-d]pyrimidin-4-ol] | –
≤ 100 | 100 to 1000 | CN(c1ccc(Oc2nc(O)c3ccncc3n2)cc1)c1ccc(C(C)(C)C)cc1 [Example 92, 2-[4-(4-tert-butyl-N-methylanilino)phenoxy]pyrido[3,4-d]pyrimidin-4-ol] | –

IC50 ([1]; Homo sapiens) [nM] | IC50 (JMJD2C) [nM] | Compound | IC50 [1] [nM]
100 to 1000 | 100 to 1000 | CN(c1ccc(Cl)cc1)c1ccc(Oc2nc(O)c3ccncc3n2)cc1 [Example 94, 2-[4-(4-chloro-N-methylanilino)phenoxy]pyrido[3,4-d]pyrimidin-4-ol] | –
1000 to 10000 | 1000 to 10000 | CN(c1ccc(Oc2nc(O)c3ccncc3n2)cc1)c1cccc(Cl)c1 [Example 95, 2-[4-(3-chloro-N-methylanilino)phenoxy]pyrido[3,4-d]pyrimidin-4-ol] | –
100 to 1000 | 100 to 1000 | CCc1ccc(N(C)c2ccc(Oc3nc(O)c4ccncc4n3)cc2)nc1 [Example 97, 2-[4-[(5-ethylpyridin-2-yl)-methylamino]phenoxy]pyrido[3,4-d]pyrimidin-4-ol] | –
> 10000 | 1000 to 10000 | CN(c1ccc(Oc2nc(O)c3ccncc3n2)cc1)c1ccc(C2=CCOCC2)cc1 [Example 98, 2-[4-[4-(3,6-dihydro-2H-pyran-4-yl)-N-methylanilino]phenoxy]pyrido[3,4-d]pyrimidin-4-ol] | –
≤ 100 | 100 to 1000 | CN(c1ccc(Oc2nc(O)c3ccncc3n2)cc1)c1ccc(C2CCOCC2)cc1 [Example 99, 2-[4-[N-methyl-4-(oxan-4-yl)anilino]phenoxy]pyrido[3,4-d]pyrimidin-4-ol] | –
> 10000 | ≤ 100 | COCCNCC(C)c1ccc(N(C)c2ccc(Oc3nc(O)c4ccncc4n3)cc2)cc1 (stereo not drawn) [Example 100, 2-[4-[4-[1-(2-methoxyethylamino)propan-2-yl]-N-methylanilino]phenoxy]pyrido[3,4-d]pyrimidin-4-ol] | –
100 to 1000 | 1000 to 10000 | CN(c1ccc(OCC2CC2)cc1)c1ccc(Oc2nc(O)c3ccncc3n2)cc1 [Example 101, 2-[4-[4-(cyclopropylmethoxy)-N-methylanilino]phenoxy]pyrido[3,4-d]pyrimidin-4-ol] | –
100 to 1000 | 100 to 1000 | COCCN(c1ccc(Oc2nc(O)c3ccncc3n2)cc1)c1ccc(C(C)C)cc1 [Example 102, 2-[4-[N-(2-methoxyethyl)-4-propan-2-ylanilino]phenoxy]pyrido[3,4-d]pyrimidin-4-ol] | –
> 10000 | 1000 to 10000 | Oc1nc(Oc2ccc3c(ccn3-c3ccccc3)c2)nc2cnccc12 [Example 103, 2-(1-phenylindol-5-yl)oxypyrido[3,4-d]pyrimidin-4-ol] | –
> 10000 | ≤ 100 | Oc1nc(Oc2ccc3c(ccn3C3CCNCC3)c2)nc2cnccc12 [Example 104, 2-(1-piperidin-4-ylindol-5-yl)oxypyrido[3,4-d]pyrimidin-4-ol] | –
1000 to 10000 | ≤ 100 | Cc1ccc(N(C)c2ccc(Oc3nc(O)c4ccncc4n3)cc2)cc1N1CCN(C)CC1 [Example 105, 2-[4-[N,4-dimethyl-3-(4-methylpiperazin-1-yl)anilino]phenoxy]pyrido[3,4-d]pyrimidin-4-ol] | –
≤ 100 | 1000 to 10000 | CN(c1ccc(CC(F)(F)F)cc1)c1ccc(Oc2nc(O)c3ccncc3n2)cc1 [Example 106, 2-[4-[N-methyl-4-(2,2,2-trifluoroethyl)anilino]phenoxy]pyrido[3,4-d]pyrimidin-4-ol] | –
≤ 100 | 1000 to 10000 | CN(c1ccc(Oc2nc(O)c3ccncc3n2)cc1)c1ccc(C2(C(F)(F)F)CC2)cc1 [Example 107, 2-[4-[N-methyl-4-[1-(trifluoromethyl)cyclopropyl]anilino]phenoxy]pyrido[3,4-d]pyrimidin-4-ol] | –
≤ 100 | 100 to 1000 | CC(c1ccc(N(C)c2ccc(Oc3nc(O)c4ccncc4n3)cc2)cc1)C(F)(F)F (stereo not drawn) [Example 108, 2-[4-[N-methyl-4-(1,1,1-trifluoropropan-2-yl)anilino]phenoxy]pyrido[3,4-d]pyrimidin-4-ol] | –
1000 to 10000 | 100 to 1000 | CC(C)c1ccc(N(C)c2ccc(Oc3nc(O)c4ccncc4n3)cc2)cn1 [Example 109, 2-[4-[methyl-(6-propan-2-ylpyridin-3-yl)amino]phenoxy]pyrido[3,4-d]pyrimidin-4-ol] | –
100 to 1000 | 1000 to 10000 | CN(c1ccc(Oc2nc(O)c3ccncc3n2)cc1)c1ccc(OC(F)(F)F)cc1 [Example 110, 2-[4-[N-methyl-4-(trifluoromethoxy)anilino]phenoxy]pyrido[3,4-d]pyrimidin-4-ol] | –
100 to 1000 | 100 to 1000 | CC(C)Oc1ccc(N(C)c2ccc(Oc3nc(O)c4ccncc4n3)cc2)cc1 [Example 111, 2-[4-(N-methyl-4-propan-2-yloxyanilino)phenoxy]pyrido[3,4-d]pyrimidin-4-ol] | –

Compound | IC50 ([1]; Homo sapiens) [nM] | IC50 (JMJD2C) [nM] | IC50 [1] [nM]
CN1CCC(N(C)c2cccc(N(C)c3ccc(Oc4nc(O)c5ccncc5n4)cc3)c2)CC1 [Example 89, 2-[4-[N-methyl-3-[methyl-(1-methylpiperidin-4-yl)amino]anilino]phenoxy]pyrido[3,4-d]pyrimidin-4-ol] | 1000 to 10000 | ≤ 100 | –
CN(c1ccc(Oc2nc(O)c3ccncc3n2)cc1)c1ccccc1F [Example 96] | – | 100 to 1000 | 1000 to 10000
